The text below walks through data of PubChem BioAssay (NCI).

Structures are written as SMILES.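 Where inhibition never reached the appropriate level, the endpoint shown equals the highest concentration tested. Otherwise, values were interpolated linearly from a five-concentration, 48-hour dose response in 96-well plates. GI50 = concentration required for 50% inhibition of growth. TGI: concentration producing complete growth inhibition.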

The TGI is the concentration at which net growth stops. By GI50 is commonly meant the concentration at which growth is held to half of that of the control.

Some test systems named below: COLO 205 colon; HT29 colon; KM12 colon; MALME-3M melanoma; MCF7 breast; NCI-H226 lung; RPMI-8226 leukemia; SF-268 CNS; SK-MEL-28 melanoma; T-47D breast.
Assay in all cases: DTP human tumour cell line panel, 48 h

As for `CCCc1nc(Cl)c(Cl)c(Cl)n1`, the TGI is more than 100 µM with COLO 205 colon; more than 100 µM with HT29 colon; more than 100 µM in the test on KM12 colon; more than 51.4 µM in the test on MALME-3M melanoma; more than 78.6 µM in the test with MCF7 breast; more than 94.6 µM with NCI-H226 lung. Further, the TGI in the test with RPMI-8226 leukemia is 3.94 µM; in the test with SF-268 CNS it was 33.4 µM; with SK-MEL-28 melanoma, more than 100 µM; in the test with T-47D breast, more than 100 µM.
Turning to `Cc1c2ccncc2c(C)c2c1sc1ccccc12`, the TGI was 26.9 µM in the test on COLO 205 colon; 22.6 µM with HT29 colon; 31.2 µM in the test with KM12 colon; 29.1 µM with MALME-3M melanoma; 18.1 µM in the test on MCF7 breast; 42.9 µM in the test on NCI-H226 lung. Moreover, the TGI in the test with RPMI-8226 leukemia was 48 µM; in the test with SF-268 CNS, 64.3 µM; in the test on SK-MEL-28 melanoma, 32.7 µM; in the test with T-47D breast, more than 100 µM.
Regarding `COc1ccc(-c2cn(-c3ccc(OC)c(OC)c3)c(=O)[nH]2)cc1`, the GI50 in the test on COLO 205 colon is more than 100 µM; with HT29 colon, 65.1 µM; in the test with KM12 colon it was 92.1 µM; in the test with MALME-3M melanoma, more than 100 µM; in the test with MCF7 breast, more than 100 µM; with NCI-H226 lung, more than 100 µM. For the same compound, the GI50 with RPMI-8226 leukemia is more than 100 µM; in the test on SF-268 CNS it was more than 100 µM; in the test with SK-MEL-28 melanoma it was more than 100 µM; with T-47D breast, 51.5 µM. The TGI in the test on COLO 205 colon, in the test on HT29 colon, in the test on KM12 colon, in the test on MALME-3M melanoma, in the test with MCF7 breast and in the test on NCI-H226 lung was more than 100 µM in each case. Moreover, the TGI in the test with RPMI-8226 leukemia, in the test on SF-268 CNS, with SK-MEL-28 melanoma and with T-47D breast was more than 100 µM each time.
With `COS(C)(=O)=O`, the TGI in the test on COLO 205 colon, in the test with HT29 colon, with KM12 colon, in the test on MALME-3M melanoma, in the test on MCF7 breast and in the test on NCI-H226 lung was more than 2 µM throughout. The total growth inhibition concentration (TGI) in the test with RPMI-8226 leukemia, with SF-268 CNS, in the test on SK-MEL-28 melanoma and with T-47D breast was more than 2 µM each time.
Turning to `O=C(Nc1cc(Cl)ccc1O)c1ccccc1Nc1ccnc(C(F)(F)F)c1`, the GI50 in the test on COLO 205 colon is 2.38 µM; in the test on HT29 colon, 3.27 µM; in the test with KM12 colon it was 2.74 µM; in the test with MALME-3M melanoma, 2.2 µM; with MCF7 breast, 2.75 µM; in the test on NCI-H226 lung, 2.11 µM. Further, the GI50 in the test on RPMI-8226 leukemia is 1.94 µM; with SF-268 CNS it was 3.13 µM; with SK-MEL-28 melanoma, 3 µM; in the test on T-47D breast it was 2.47 µM. For the same compound, the total growth inhibition concentration (TGI) in the test on COLO 205 colon is 5.4 µM; with HT29 colon, 11.5 µM; in the test with KM12 colon, 8.13 µM; with MALME-3M melanoma, 7.39 µM; in the test with MCF7 breast, 11.6 µM; in the test on NCI-H226 lung it was 9.17 µM. Besides, the total growth inhibition concentration (TGI) with RPMI-8226 leukemia turned out to be 7.43 µM; with SF-268 CNS it was 13.2 µM; in the test on SK-MEL-28 melanoma, 12.2 µM; with T-47D breast it was 8.5 µM.
As to `O=C(Nc1ccccc1)OC1OC(COC(=O)c2ccccc2)C(OC(=O)c2ccccc2)C1OS(=O)(=O)c1ccc([N+](=O)[O-])cc1` (stereo not drawn), the total growth inhibition concentration (TGI) in the test with COLO 205 colon, with HT29 colon, with KM12 colon, in the test with MALME-3M melanoma, in the test on MCF7 breast and with NCI-H226 lung was more than 100 µM throughout. The TGI in the test with RPMI-8226 leukemia, with SF-268 CNS, in the test with SK-MEL-28 melanoma and in the test with T-47D breast was more than 100 µM in each case.
With `C#CC1(O)C(COP(=O)(O)OCC2OC(n3cc(F)c(=O)[nH]c3=O)CC2O)OC(n2ccc(N)nc2=O)C1O` (stereo not drawn), the GI50 in the test with COLO 205 colon is less than 0.01 µM; with HT29 colon it was less than 0.01 µM; in the test with KM12 colon, less than 0.01 µM; with MALME-3M melanoma it was less than 0.0118 µM; in the test with MCF7 breast it was less than 0.01 µM; in the test on NCI-H226 lung, less than 0.01 µM. In addition, the GI50 with RPMI-8226 leukemia is less than 0.01 µM; in the test on SF-268 CNS it was less than 0.01 µM; with SK-MEL-28 melanoma, less than 0.01 µM; with T-47D breast it was less than 0.0238 µM. Further, the TGI in the test on COLO 205 colon is 0.96 µM; with HT29 colon, more than 100 µM; in the test on KM12 colon, more than 23.8 µM; in the test with MALME-3M melanoma, 0.444 µM; with MCF7 breast, more than 100 µM; in the test on NCI-H226 lung, more than 100 µM. Moreover, the results for the TGI with RPMI-8226 leukemia, with SF-268 CNS and in the test on SK-MEL-28 melanoma were 0.119 µM, 5.81 µM and 0.378 µM, respectively.
Consider `O=C(c1ccc([N+](=O)[O-])cc1)C(Br)C(Br)c1ccnc2ccccc12` (stereo not drawn), for which the TGI with COLO 205 colon was 28.9 µM; with HT29 colon, 11.7 µM; in the test on KM12 colon it was 5.13 µM; in the test on MALME-3M melanoma, 25.4 µM; with MCF7 breast, 8.86 µM; in the test on NCI-H226 lung it was 33.6 µM. In addition, the TGI in the test on RPMI-8226 leukemia was 5.91 µM; in the test with SF-268 CNS, 45.2 µM; in the test with SK-MEL-28 melanoma, 30.8 µM; in the test on T-47D breast, more than 56.6 µM.
Take `O=C(Nc1cc(F)c(F)cc1C(=O)O)c1ccc(-n2ccnc2)nn1`: the GI50 in the test on COLO 205 colon, in the test on HT29 colon, in the test on KM12 colon, with MALME-3M melanoma, in the test on MCF7 breast and in the test with NCI-H226 lung was more than 100 µM in each case. The GI50 in the test with RPMI-8226 leukemia, with SF-268 CNS, with SK-MEL-28 melanoma and in the test with T-47D breast was more than 100 µM in each case. Moreover, the TGI with COLO 205 colon, with HT29 colon, with KM12 colon, with MALME-3M melanoma, in the test with MCF7 breast and with NCI-H226 lung was more than 100 µM each time. The TGI in the test on RPMI-8226 leukemia, with SF-268 CNS, in the test with SK-MEL-28 melanoma and in the test with T-47D breast was more than 100 µM in each case.
As to `COc1ccc(C(=O)c2cc3c(N)c(C(=O)Nc4cccc(Br)c4C)sc3nc2C)cc1`, the 50% growth inhibitory concentration (GI50) is 0.22 µM in the test on COLO 205 colon; 0.0509 µM in the test on HT29 colon; 0.0684 µM in the test on KM12 colon; 0.0542 µM in the test with MALME-3M melanoma; 0.0396 µM in the test with MCF7 breast; 0.173 µM in the test with NCI-H226 lung. Besides, the GI50 was 0.037 µM in the test with RPMI-8226 leukemia, 0.173 µM in the test on SF-268 CNS, more than 100 µM in the test with SK-MEL-28 melanoma and 50.4 µM with T-47D breast. In addition, the TGI in the test with COLO 205 colon is 0.987 µM; with HT29 colon, more than 100 µM; with KM12 colon, more than 36.3 µM; in the test on MALME-3M melanoma, more than 100 µM; in the test on MCF7 breast, more than 100 µM; with NCI-H226 lung it was more than 100 µM. Besides, the concentration for total growth inhibition (TGI) with SF-268 CNS, with SK-MEL-28 melanoma and in the test with T-47D breast was more than 100 µM throughout.
